Key:
[1] = tested on: native c-MYC quadruplex (Pu27); test: ITC of peptides with native c-MYC quadruplex Pu27 in potassium phosphate buffer; type: binding, human; conditions: 25°C, 20 μM peptide in cell, 500 μM Pu27 in syringe, 10 mM potassium phosphate, 0.1 M KCl, pH 7.0, one-site model
Protocol: The putative wild-type and truncated G-quadruplex forming sequences (Table 2 and Supplementary Table S1), located at the upstream of c-MYC promoter are reconstituted in 10 mM Potassium Phosphate buffer (pH 7.0) having 100 mM potassium chloride (KCl). The sequences are allowed to evolve G-quadruplex structure in solution by annealing at 95°C followed by gradual cooling. (Supplementary information Section 1).
Thermodynamic attributes of the interaction profiles between peptides and putative quadruplex sequences are analysed by ITC using iTC200 Microcalorimeter at 25°C. Synthetic peptides (FK13, KR12A, KR12B, KR12C, KR12D and KR12E) are diluted to 20 μM in 10 mM Potassium phosphate buffer (10 mM K2HPO4 + 10 mM KH2PO4) containing 0.1 M KCl (pH 7.0). Syringe is filled with 500 μM quadruplex sequences present in the upstream promoter regions of c-MYC (Pu27, Pu19, and Myc22), BCL-2 (Pu30), VEGF-A (Pu22), KRAS (Pu32) oncogenes, and telomere (Tel26) dissolved into the same buffer. We also carried out the experiment for KR12C and Pu27 using MCF-7 nuclear extract as the solvent to mimic the cellular microenvironment and impart macromolecular crowding during binding events. Same concentration of oligonucleotides is injected into the identical buffer or in nuclear extract without peptides to normalize the heat of dilution of peptide-quadruplex association to that of the control before curve-fitting. Oligonucleotides are injected 20 times at an interval of 150 s into the calorimeter cell having the peptides to achieve binding saturation. The heat of reaction per injection (μcal/s) is determined by integration of the peak areas using in-built Origin 7.0 software that provides the best-fit values of enthalpy (ΔH) and entropy (ΔS) of binding, the binding stoichiometry (n), and dissociation constant (Kd) (Supplementary Tables S5(a), S5(b) and S5(c)). Data points are further simulated with ‘one-site’ binding modes (Supplementary information Section 1).

c-MYC quadruplex Pu27 = test: CD melting of free and peptide-bound Pu27; type: binding, human
Protocol: To understand the role of peptides (FK13, KR12A, KR12B, KR12C, KR12D and KR12E) in stabilizing native and truncated isomers of c-MYC G-quadruplex, we have performed temperature-driven CD melting experiments for free and peptide-bound complexes in JASCO-J815 CD spectrometer. We have gradually titrated the peptides into 10 μM of putative quadruplexes and acquired the spectra after 5 min of peptide addition to allow complex formation and equilibration. Samples are heated from 20 to 95°C having the temperature gradient and the delay time of 2.5°C/min and 150 s respectively. Since the quadruplexes unfold at higher temperatures and revert back to their initial conformations upon renaturation, we have assumed a ‘two-state transition’ model (folded and unfolded) to analyze the melting curves and estimated the melting temperatures (Tm) by fitting the data points into sigmoidal curves (Supplementary information Section 1).

[2] = tested on: c-MYC promoter (Pu27-GQ) in MCF-7 cells; test: Dual-luciferase assay, c-MYC promoter with Pu27-GQ; type: cell-based, human; conditions: MCF-7, 24 h, peptide 0–60 μM
Protocol: (§1) MCF-7 cells are sub-cultured into 24-well microtiter plates at a cell density of 1 × 10^5 cells/well. Reporter constructs (c-MYC, BCL-2, KRAS and VEGF-A) (500 ng) with and/or without the G-quadruplex scaffolds triggering the expression of Renilla luciferase are co-transfected with 50 ng of pGL3-control vectors (Promega) (used as internal control), encoding firefly luciferase into MCF-7 cells using Lipofectamine® 3000 transfection reagent (Thermo-Fisher Scientific) following manufacturer's recommendations (Supplementary information Section 1). Twenty four hours post-transfection, cells are treated with peptides (FK13, KR12A, KR12B, KR12C, KR12D and KR12E) at an increasing concentration gradient.
(§2) Dual-luciferase assays are performed to examine the intracellular selectivity of peptides for c-MYC quadruplex isomers (Pu27, Myc22 and Pu19) over other oncogenic quadruplexes (BCL-2, VEGF-A and KRAS) of different topologies. The role of peptide-quadruplex complex in oncogene promoter activation is investigated in contrast to the GQ-null promoter constructs into MCF-7 cells ([67]). After 24 h of peptide treatment, cells are washed and lysed into 100 μl 1× Passive lysis buffer (PLB) for 15 min at room temperature. Renilla and firefly Luciferase activities in 25 μl lysate are quantified by Dual-Luciferase® reporter assay system (Promega) as per manufacturer's recommendations. Renilla luciferase enzyme activity is normalized to that of the firefly luciferase activity and luminescence of the peptide-treated samples are normalized to the untreated ones, which yield the fold induction values for Renilla activities by different quadruplex structures in presence and absence of synthetic peptides. Luminescence of each sample is detected in GloMax® 20/20 Single-Tube Luminometer (Promega) in triplicates and averaged from three independent experiments.

[3] = tested on: BCL-2 promoter (BCL-2-GQ) in MCF-7 cells; test: Dual-luciferase assay, BCL-2 promoter with BCL-2-GQ; type: cell-based, human; conditions: MCF-7, 24 h, peptide 0–60 μM
Protocol: as §1, §2

[4] = tested on: KRAS promoter (KRAS-GQ) in MCF-7 cells; test: Dual-luciferase assay, KRAS promoter with KRAS-GQ; type: cell-based, human; conditions: MCF-7, 24 h
Protocol: as §1, §2

[5] = tested on: VEGF-A promoter (VEGF-A-GQ) in MCF-7 cells; test: Dual-luciferase assay, VEGF-A promoter with VEGF-A-GQ; type: cell-based, human; conditions: MCF-7, 24 h, peptide 0–60 μM
Protocol: as §1, §2

[6] = tested on: c-MYC promoter with Myc22 isomer in MCF-7 cells; test: Dual-luciferase assay, c-MYC promoter under control of Myc22; type: cell-based, human; conditions: MCF-7, 24 h peptide treatment
Protocol: as §1, §2

[7] = tested on: c-MYC promoter with Pu19 isomer in MCF-7 cells; test: Dual-luciferase assay, c-MYC promoter under control of Pu19; type: cell-based, human; conditions: MCF-7, 24 h peptide treatment
Protocol: as §1, §2

[8] = tested on: KR12A (synthetic, derived from human LL37); test: ITC; conditions: ITC: 10 mM potassium phosphate pH 7.0, 100 mM KCl, 25 C; 20 uM peptide in cell, 500 uM G4 DNA in syringe; one-site fit. NMR: same buffer, 10% D2O, NOESY at …
[9] = tested on: KR12B (synthetic, derived from human LL37); test: ITC; conditions: ITC: 10 mM potassium phosphate pH 7.0, 100 mM KCl, 25 C; 20 uM peptide in cell, 500 uM G4 DNA in syringe; one-site fit. NMR: same buffer, 10% D2O, NOESY at …
[10] = tested on: KR12C (synthetic, derived from human LL37); test: ITC; conditions: ITC: 10 mM potassium phosphate pH 7.0, 100 mM KCl, 25 C, 20 uM peptide in cell, 500 uM G4 DNA in syringe, one-site fit. NMR: same buffer, 10% D2O, NOESY at …; for binding signal (fold lower affinity than c-MYC G4): 100 mM KCl, fold order read as BCL-2 then telomere
[11] = tested on: KR12D (synthetic, derived from human LL37); test: ITC; conditions: ITC: 10 mM potassium phosphate pH 7.0, 100 mM KCl, 25 C; 20 uM peptide in cell, 500 uM G4 DNA in syringe; one-site fit. NMR: same buffer, 10% D2O, NOESY at …
[12] = tested on: KR12E (synthetic, derived from human LL37); test: ITC; conditions: ITC: 10 mM potassium phosphate pH 7.0, 100 mM KCl, 25 C; 20 uM peptide in cell, 500 uM G4 DNA in syringe; one-site fit. NMR: same buffer, 10% D2O, NOESY at …
[13] = tested on: KR12A (synthetic, derived from human LL37); test: CD melting; conditions: destabilizes; ITC: 10 mM potassium phosphate pH 7.0, 100 mM KCl, 25 C; 20 uM peptide in cell, 500 uM G4 DNA in syringe; one-site fit. NMR: same buffer, 10% D2O, NOESY at …
[14] = tested on: KR12C (synthetic, derived from human LL37); test: CD melting; conditions: ITC: 10 mM potassium phosphate pH 7.0, 100 mM KCl, 25 C; 20 uM peptide in cell, 500 uM G4 DNA in syringe; one-site fit. NMR: same buffer, 10% D2O, NOESY at …
[15] = tested on: KR12E (synthetic, derived from human LL37); test: CD melting; conditions: destabilizes; ITC: 10 mM potassium phosphate pH 7.0, 100 mM KCl, 25 C; 20 uM peptide in cell, 500 uM G4 DNA in syringe; one-site fit. NMR: same buffer, 10% D2O, NOESY at …
[16] = target: T1, FK13 (LL37-derived peptide) (Homo sapiens (synthetic, derived from …, UniProt P49913 150-162)); test: ITC; 100 mM KCl; ITC: 10 mM potassium phosphate pH 7.0, 100 mM KCl, 25 C; 20 uM peptide in cell, 500 uM G4 DNA in syringe; one-site fit. NMR: same buffer, 10% D2O, NOESY at 15 C; conditions: G4, unimolecular
T1 chain: FKRIVQRIKDFLR

Molecule: N – KRIVKRIKKWLL – C [KR12E, dodecameric mutant peptide derived from FK13 / LL37]
- K A [1]: 18800 M⁻¹
- Kd [1]: 53.2 µM
- ΔG (binding energy) [1]: -5.89 kcal/mol
- ΔH (binding enthalpy) [1]: -168 kcal/mol
- ΔS (entropy) [1]: −544 cal/mol/deg
- decrease of the Tm of Pu27 upon peptide binding (c-MYC quadruplex Pu27; 10 μM quadruplex, two-state model): ~30 °C
- c-MYC promoter activity [2]: no significant effects
- BCL-2 promoter activity [3]: no significant effects
- KRAS promoter activity ([4]; peptide 0–60 μM): no significant effects
- VEGF-A promoter activity [5]: no significant effects
- c-MYC promoter activation under control of Myc22 [6]: no regulatory effect
- c-MYC promoter activation under control of Pu19 [7]: no regulatory effect

Molecule: TGGGGAGGGTGGGGAGGGTGGGGAAGG [Pu27 c-MYC quadruplex]
- Kd [8]: 61.7 µM
- Kd [9]: 37.3 µM
- Kd [10]: 8.06 µM
- Kd ([10]; MCF-7 nuclear extract as solvent (crowding)): 0.901 µM
- Kd [11]: 49 µM
- Kd [12]: 53.2 µM
- binding signal (delta Tm, deg C) [13]: -30
- binding signal (delta Tm, deg C) [14]: 9
- binding signal (delta Tm, deg C) [15]: -30

Molecule: GGAGGGTGGGGAGGGTGGGGAA [Myc22]
- binding signal (delta Tm, deg C) [14]: 6.91

Molecule: BCL-2 Pu30 quadruplex
- binding signal (fold lower affinity than c-MYC G4) [10]: 3

Molecule: TGGGGAGGGTGGGGAGGGT [Pu19]
- binding signal (delta Tm, deg C) [14]: 10.9

Molecule: Tel26 telomeric quadruplex
- binding signal (fold lower affinity than c-MYC G4) [10]: 4

Molecule: N – KRIVKVIKKWLR – C [KR12D, dodecameric mutant peptide derived from FK13 / LL37]
- K A [1]: 20400 M⁻¹
- Kd [1]: 49 µM
- ΔG (binding energy) [1]: -5.774 kcal/mol
- ΔH (binding enthalpy) [1]: -136 kcal/mol
- ΔS (entropy) [1]: −437 cal/mol/deg
- effect on thermal stability of Pu27 (c-MYC quadruplex Pu27): did not significantly induce thermal stability
- c-MYC promoter activity [2]: no significant effects
- BCL-2 promoter activity [3]: no significant effects
- KRAS promoter activity, fold inhibition ([4]; at higher concentration): ~1.6 fold
- VEGF-A promoter activity [5]: no significant effects
- c-MYC promoter activation under control of Myc22 [6]: no regulatory effect
- c-MYC promoter activation under control of Pu19 [7]: no regulatory effect

Molecule: TGGGGAGGGTGGGGAGGGTGGGGAAGG (structured_DNA) [Pu27 c-MYC quadruplex]
- Kd [16]: 34.6 µM
